According to PubChem BioAssay AID1963853 (Molecular Pharmacology Branch, DTP, NCI, 2024):
Where “and” joins values, the source holds several entries; their conditions need not be identical. Equal entries are not always repeated.

Tested on: 266295-075-R-J1-PDC spheroid viability
Assay: Anticancer human tumor 266295-075-R-J1-PDC patient-derived head and neck squamous carcinoma cell line growth inhibition [POLQ]
Details: spheroids with HUVEC and MSC; for viability, T/C: stronger effect = lower value
In short: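 Three-cell-type spheroids modelling solid tumor plus stroma served as the readout system; POL inhibitors were tested individually and in combination, concentration ranges set by clinical Cmax where known.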
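Also: spheroids exposed to compounds for seven days before readout.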

**Q.** Which results are given for `Nc1ccn(C2OC(CO)C(O)C2(F)F)c(=O)n1` (stereo not drawn)?
**A.** viability, T/C (compound 0.0316 µM): 85.5% and 98.5% and 105%; viability, T/C (compound 0.1 µM): 81.7% and 117% and 83.4%; viability, T/C (compound 0.316 µM): 81.2% and 85.9% and 88.4%; viability, T/C (compound 1 µM): 64.9% and 81.8% and 83.7%; viability, T/C (compound 3.16 µM): 84.6% and 85.2% and 85.7%; viability, T/C (compound 10 µM): 75.2% and 82.7% and 85.4%; IC50 (curve of compound): > 10 µM

**Q.** `O=C(c1cc(Cc2n[nH]c(=O)c3ccccc23)ccc1F)N1CCN(C(=O)C2CC2)CC1` was tested. Which viability, T/C (compound 0.0316 µM) did it give?
**A.** The viability, T/C was 114% and 79.6% and 101%.

**Q.** What about the viability, T/C (compound 0.1 µM) of the same compound?
**A.** The viability, T/C was 84% and 87.8% and 94.3%.

**Q.** And the viability, T/C (compound 0.316 µM)?
**A.** Its viability, T/C is 94.3% and 90.3% and 90.9%.

**Q.** And the viability, T/C (compound 1 µM)?
**A.** The viability, T/C was 91.9% and 99.1% and 99.3%.

**Q.** And the viability, T/C (compound 3.16 µM)?
**A.** The viability, T/C was 112% and 105% and 107%.

**Q.** And the viability, T/C (compound 10 µM)?
**A.** Its viability, T/C is 85.3% and 86.9% and 82.6%.

**Q.** And the IC50 (curve of compound)?
**A.** Its IC50 is greater than 10 µM.

**Q.** What does the source list for `CCc1c2c(nc3ccc(O)cc13)-c1cc3c(c(=O)n1C2)COC(=O)[C@]3(O)CC`?
**A.** viability, T/C (compound 0.00316 µM): 84.2% and 91.3% and 93.2%; viability, T/C (compound 0.01 µM): 77.4% and 78.1% and 89.5%; viability, T/C (compound 0.0316 µM): 71.7% and 92.1% and 88.6%; viability, T/C (compound 0.1 µM): 87% (2×) and 97.7%; viability, T/C (compound 0.316 µM): 95.2% and 104% and 109%; viability, T/C (compound 1 µM): 71.8% (2×) and 91.9%; IC50 (curve of compound): > 1 µM

**Q.** What does the source list for `C=CC(=O)N1CCN(c2nc(=O)n(-c3c(C)ccnc3C(C)C)c3nc(-c4c(O)cccc4F)c(F)cc23)C(C)C1` (stereo not drawn) + Nc1ccc(C#CCN(C(=O)Cc2ncc(C(F)(F)F)cc2C(F)(F)F)c2ccc(F)cc2)nn1?
**A.** IC50 (curve of first compound, second compound 0.0316 µM): > 10 µM; IC50 (curve of first compound, second compound 0.1 µM): > 10 µM; IC50 (curve of first compound, second compound 0.316 µM): > 10 µM; IC50 (curve of first compound, second compound 1 µM): > 10 µM; IC50 (curve of first compound, second compound 3.16 µM): > 10 µM; IC50 (curve of first compound, second compound 10 µM): > 10 µM; viability, T/C (second compound 0.0316 µM, first compound 0.0316 µM): 108%; viability, T/C (second compound 0.0316 µM, first compound 0.1 µM): 96.4%; viability, T/C (second compound 0.0316 µM, first compound 0.316 µM): 101%; viability, T/C (second compound 0.0316 µM, first compound 1 µM): 96.8%; viability, T/C (second compound 0.0316 µM, first compound 3.16 µM): 112%; viability, T/C (second compound 0.0316 µM, first compound 10 µM): 107%; viability, T/C (second compound 0.1 µM, first compound 0.0316 µM): 96%; viability, T/C (second compound 0.1 µM, first compound 0.1 µM): 106%; viability, T/C (second compound 0.1 µM, first compound 0.316 µM): 100%; viability, T/C (second compound 0.1 µM, first compound 1 µM): 111%; viability, T/C (second compound 0.1 µM, first compound 3.16 µM): 108%; viability, T/C (second compound 0.1 µM, first compound 10 µM): 112%; viability, T/C (second compound 0.316 µM, first compound 0.0316 µM): 89.8%; viability, T/C (second compound 0.316 µM, first compound 0.1 µM): 107%; viability, T/C (second compound 0.316 µM, first compound 0.316 µM): 90.6%; viability, T/C (second compound 0.316 µM, first compound 1 µM): 107%; viability, T/C (second compound 0.316 µM, first compound 3.16 µM): 145%; viability, T/C (second compound 0.316 µM, first compound 10 µM): 125%; viability, T/C (second compound 1 µM, first compound 0.0316 µM): 101%; viability, T/C (second compound 1 µM, first compound 0.1 µM): 95.5%; viability, T/C (second compound 1 µM, first compound 0.316 µM): 133%; viability, T/C (second compound 1 µM, first compound 1 µM): 101%; viability, T/C (second compound 1 µM, first compound 3.16 µM): 124%; viability, T/C (second compound 1 µM, first compound 10 µM): 73.9%; viability, T/C (second compound 3.16 µM, first compound 0.0316 µM): 98.4%; viability, T/C (second compound 3.16 µM, first compound 0.1 µM): 93.8%; viability, T/C (second compound 3.16 µM, first compound 0.316 µM): 94.2%; viability, T/C (second compound 3.16 µM, first compound 1 µM): 108%; viability, T/C (second compound 3.16 µM, first compound 3.16 µM): 117%; viability, T/C (second compound 3.16 µM, first compound 10 µM): 103%; viability, T/C (second compound 10 µM, first compound 0.0316 µM): 106%; viability, T/C (second compound 10 µM, first compound 0.1 µM): 72.8%; viability, T/C (second compound 10 µM, first compound 0.316 µM): 92.3%; viability, T/C (second compound 10 µM, first compound 1 µM): 106%; viability, T/C (second compound 10 µM, first compound 3.16 µM): 105%; viability, T/C (second compound 10 µM, first compound 10 µM): 108%
